From ChEMBL document CHEMBL5131526, “Substituted N-Heteroaryl-N-Pyridinylacetamides as P2X4 Modulators for Treating Pain” (ACS Med Chem Lett, 2022)

Target: T1, P2X purinoceptor 4 (Homo sapiens, UniProt Q99571)
T1 sequence (Q99571 whole entry): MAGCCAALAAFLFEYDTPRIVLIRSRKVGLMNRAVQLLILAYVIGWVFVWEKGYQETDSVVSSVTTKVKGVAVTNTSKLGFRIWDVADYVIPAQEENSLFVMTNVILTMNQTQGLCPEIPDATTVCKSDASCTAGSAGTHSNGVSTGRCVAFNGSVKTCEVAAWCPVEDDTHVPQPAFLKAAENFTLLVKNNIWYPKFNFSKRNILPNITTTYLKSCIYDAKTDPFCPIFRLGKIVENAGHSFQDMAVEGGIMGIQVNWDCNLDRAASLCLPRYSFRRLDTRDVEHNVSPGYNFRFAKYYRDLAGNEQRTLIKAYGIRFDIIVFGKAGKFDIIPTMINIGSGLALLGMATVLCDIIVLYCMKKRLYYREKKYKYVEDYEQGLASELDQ
Experiment: Inhibition of human P2X4 stably expressed in human HEK293 cells assessed as intracellular calcium flux incubated for 30 mins in presence of agonist Benzoylbenzoyl-ATP by Fluo8-AM dye based FLIPR assay
Format: cell-based

Row | SMILES | IC50 [nM]
1 | CC(=O)N(c1cc(NC(=O)Cc2c(Cl)cccc2Cl)ccn1)c1ccncc1F | 171
2 | CC(=O)N(c1ccc2ncoc2c1)c1cc(NC(=O)Cc2ccccc2Cl)ccn1 | 168

Now those with a lower IC50, led by results:

Row | IC50 [nM] | SMILES
3 | 141 | CC(=O)N(c1ccc2ncoc2c1)c1cc(NC(=O)Cc2c(Cl)cccc2Cl)ccn1
4 | 143 | CC(=O)N(c1ccc2ncoc2c1)c1cc(NC(=O)Cc2cccc(F)c2Cl)ccn1
5 | 157 | CC(=O)N(c1ccn2nccc2c1)c1cc(NC(=O)Cc2c(Cl)cccc2Cl)ccn1
6 | 142 | CC(=O)N(c1ccc2ncsc2c1)c1cc(NC(=O)Cc2ccccc2Cl)ccn1
